In US11759461B2, “Small molecule inhibitors of cancer stem cells and mesenchymal cancer types” (The Scripps Research Institute, priority 2017, dated 2023):
Read-outs that look alike come from different tables or passages of the source.

Experiments:
[1] = system: STS cell lines (HT 1080, SW684, RD, GCT, SW872, SW982); experiment: Anti-proliferative activity against soft tissue sarcoma cell line panel; assay type: cell-based
Excerpt: The propagation conditions and generation of FOXC2-HMLER, HMLER, SNAIL-HMLER, SNAIL-HMLE, and SUM159 cells have been described previously (Mani (2008)). MCF-7, HepG2, HCT116, and MDA-MB-231 cells were from ATCC and maintained in DMEM medium (Corning) supplemented with 10% FBS (Corning) with Anti-anti (Gibco). The soft tissue sarcoma cell line panel was purchased from ATCC (TCP-1019) and maintained in the recommended medium for each cell type. HUVEC cells (pooled donor) were maintained in EBM-2 medium (both from Lonza Walkersville). Primary human lung fibroblasts were maintained in Fibroblast Medium (both from Sciencell Research Laboratories). For cell growth experiments, HLFs were grown in DMEM supplemented with 2% FBS and Anti-anti. For all experiments, primary human cells were used at a passage no greater than 4.
For high throughput screening, FOXC2-HMLER and HMLER cells were plated at 10^3 cells per well in white 384-well plates in 50 μL of MEGM medium (Lonza). Cells were allowed to attach for one hour before compound was transferred to each well as a DMSO solution using a 100 nL pintool head affixed to a PerkinElmer FX instrument. After 72-hour incubation, 30 μL of a Cell Titer Glo solution (diluted 1:6 in water, Promega) was dispensed into each well and luminance values were recorded using an Envision plate reader. […] Selected hit compounds were reordered from ChemDiv and tested for selective toxicity in 10-point response assays as above. All other miniaturized, selective viability experiments were performed as above using the indicated growth medium.
The anti-proliferative activity of Compound 1 was assessed against a selection of soft tissue sarcomas (STS), which collectively refers to a broad grouping of over 50 subtypes of connective tissue derived cancers for which targeted therapies are lacking (Zambo (2014)). […]
A panel of 6 STS cell lines were evaluated, which cell lines included the histological subtypes of fibrosarcoma (HT 1080, SW684), rhabdomyosarcoma (RD), fibrous histiocytoma (GCT), liposarcoma (SW872), and synovial sarcoma (SW982). […]

[2] = system: FOXC2-expressing HMLER cells; experiment: Cell Titer Glo viability of FOXC2-HMLER cells (high throughput screen and 10-point response); assay type: cell-based; settings: Homo sapiens
In short: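 FOXC2-HMLER cells (HMLER run in parallel) seeded at 1,000 cells/well in MEGM, attached 1 h, then given compound in DMSO (2 μM in the screen). After 72 h, viability was read by Cell Titer Glo luminescence.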

[3] = system: FOXC2-HMLER, SNAIL-HMLER, SUM159, and MDA-MB-231 cells; experiment: In vitro mammosphere formation assay; assay type: cell-based, human; settings: 1 μM compound during assay (14 days)
Procedure: FIG. 3: Quantification of mammospheres from an in vitro mammosphere formation assay with the indicated cell types. Pretreatment indicates a 72-hour treatment with 1 μM Compound 1 before plating in mammosphere formation conditions. The expression “during assay” indicates 1 μM compound treatment during the mammosphere assay (14 days) (n=3, mean and s.d.).
Epithelial-mesenchymal transition (EMT) induction endows breast cancer cells with the ability to grow as mammospheres in culture (Mani (2008)).

VIM = target: T1, VIM (Homo sapiens, UniProt P08670); experiment: Immunofluorescent analysis of VIM filamentous architecture in HUVECs; assay type: cell-based; settings: one-hour treatment
T1 construct: endogenous in cells; host or cells: FOXC2-HMLER
T1 sequence (P08670 whole entry): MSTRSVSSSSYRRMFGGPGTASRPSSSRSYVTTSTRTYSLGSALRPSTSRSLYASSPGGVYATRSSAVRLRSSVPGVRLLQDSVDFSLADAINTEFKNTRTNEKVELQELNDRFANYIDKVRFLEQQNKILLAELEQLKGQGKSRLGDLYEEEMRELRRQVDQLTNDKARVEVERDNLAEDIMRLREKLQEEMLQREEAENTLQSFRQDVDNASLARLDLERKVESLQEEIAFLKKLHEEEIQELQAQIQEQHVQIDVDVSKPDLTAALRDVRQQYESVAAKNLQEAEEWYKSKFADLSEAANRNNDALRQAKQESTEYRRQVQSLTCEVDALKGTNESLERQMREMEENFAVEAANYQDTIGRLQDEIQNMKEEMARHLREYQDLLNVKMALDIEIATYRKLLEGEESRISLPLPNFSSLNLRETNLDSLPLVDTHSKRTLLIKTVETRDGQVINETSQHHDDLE

IC50 ([1]; Homo sapiens, SW872 liposarcoma cell line, read-out: IC50, SW872 cells): 440 nM
IC50 ([1]; panel of 6 STS cell lines, read-out: IC50 values, growth of all STS cell lines): 440 to 1310 nM
SMILES: Clc1cccc(N2CCN(c3cnnc4c(Cl)cccc34)CC2)c1 [Compound 1, 8-chloro-4-(4-(3-chlorophenyl)piperazin-1-yl)cinnoline]
multinucleation phenotype in STS cell lines ([1]; all STS cell lines, 24-hour treatment): robust multinucleation phenotype
IC50 ([2]; 72-hour incubation, read-out: FOXC2-HMLER IC50): 234 nM
IC50 ([2]; scored relative to parent compound 1, 72 hours, read-out: Activity Score, inhibition of FOXC2-expressing HMLER cells by Formula I compounds): < 1000 nM
ability to form mammospheres in culture [3]: inhibited the ability
VIM filamentous architecture in HUVECs (VIM): promoted the destruction of fine VIM-containing filamentous structures
